The source of these data is US7892767B2, “Phosphospecific chemokine receptor antibodies” (Washington University in St. Louis, priority 2005, dated 2011).

One test has as its system Nf1−/− astrocytes. As to the kind of experiment: Cell number by trypan blue exclusion, Nf1−/− astrocytes. The class given is cell-based, mouse. The settings on record: CXCL12 0.1 ug/ml (≈10 nM), 24 hours, vs untreated controls. Here is the method: (§1) Culture and treatment of primary astrocytes. Primary cultures of astrocytes were prepared from post-natal day two Nf1^flox/flox mice as previously described (134) and in accordance with established Animal Studies Protocols at Washington University School of Medicine. Cultures were infected with adenovirus containing either Cre recombinase (Nf1−/−) or LacZ (Nf1+/+). Primary cultures of astrocytes were grown under standard adherent conditions in serum free media (DMEM/F12 or Neurobasal (Gibco-BRL)) in the presence or absence of 0.1 μg/ml CXCL12 (Peprotech) and 10 μM Forskolin for 24 hours, as indicated. Cell number was determined after 24 hours by trypan blue exclusion and the growth effects of CXCL12 were derived as follows: ((cell number in the presence of CXCL12—cell number cell in the absence of CXCL12)/cell number in the absence of CXCL12)×100.)
(§2) To determine the biological significance of CXCR4 activation to NF1 glioma biology, we next sought to evaluate the regulation of CXCL12 growth effects by neurofibromin in astrocytes. While the true cell of origin of astrocytomas remains unknown, we utilized primary cultures of cortical astrocytes as a model of a normal counterpart to astrocytoma cells. Astrocytes were derived from Nf1^flox/flox mice and rendered Nf1+/+ or Nf1−/− by infection with adenovirus encoding LacZ or Cre recombinase, respectively.

Test [1] deals with Nf1+/+ astrocytes. As to the kind of experiment: Cell number by trypan blue exclusion, Nf1+/+ astrocytes. The settings on record: CXCL12 0.1 ug/ml (≈10 nM), 24 hours, vs untreated controls. The class given is cell-based, mouse. Here is the method: as §1, §2
Test [2] relates to Nf1+/+ astrocytes. As to the kind of experiment: Intracellular cAMP by ELISA, Nf1+/+ astrocytes. The class given is cell-based, mouse. To be noted: 0.1 μg/ml CXCL12, 45-minute period. As to the method: cAMP measurements. cAMP was measured by ELISA (Cayman Chemical Company, Ann Arbor, Mich. or Assay Designs, Ann Arbor, Mich.). Briefly, astrocyte cultures were lysed in 0.1 N HCl. After the removal of cellular debris, soluble cellular extract was dried down and resuspended in EIA buffer. Experimental samples and cAMP standard curve were acetylated to increase the sensitivity of the assay and incubated with cAMP ACHe tracer and cAMP EIA anti-serum overnight at 4° C. according to the manufacturer's instructions. After extensive washing, bound antibody was measured by spectrophotometric analysis. Concentrations of cAMP were derived from comparison with standard curve according to manufacturer's instructions.
We evaluated the time dependent changes in intracellular cAMP in Nf1+/+ and Nf1−/− astrocytes after exposure to 0.1 μg/ml CXCL12. […] However, in Nf1+/+ astrocytes, intracellular levels of cAMP rapidly recovered to baseline and oscillated between baseline and 40% of baseline over the 45-minute experimental period (FIG. 10B).
We hypothesized that if cooperative signaling between Nf1 loss and CXCR4 activation promotes tumor formation through the suppression of cAMP, then agents that alter intracellular cAMP should modulate CXCL12 responses. We treated astrocytes with the adenylyl cyclase (AC) activator forskolin in the presence and absence of CXCL12. […] In these experiments, forskolin elevated intracellular cAMP levels in both Nf1+/+ and Nf1−/− astrocytes with peak values of 17.8+/−0.4 and 19.4+/−4.5 pmol/mg of protein, respectively, after 24 hours of treatment. The effect of forskolin was not abrogated by co-treatment with CXCL12. Under these conditions, cAMP levels were 17.9+/−2.5 and 10.4+/−5.8 pmol/mg of total protein in Nf1+/+ and Nf1−/− astrocytes, respectively. […] The effect of forskolin on CXCL12-mediated Nf1−/− apoptosis was evidenced by changes in the percentage of Nf1−/− astrocytes in the sub-G0 fraction of the cell cycle (FIG. 11B). Thus while astrocyte growth is dependent upon MEK and PI3 kinase activity, CXCL12-induced Nf1−/− astrocyte growth requires the suppression of intracellular cAMP levels.
For orientation: In an ELISA, binding on a coated surface is turned into a signal by an enzyme label.

The subject of the next test is U87 glioblastoma cells. As to the kind of experiment: Intracellular cAMP by ELISA, U87 glioblastoma cells. The settings on record: 1 μg/ml CXCL12. The format is cell-based, human. Here is the method: (§3) Growth factor and drug treatment. Following serum-starvation for 24 hours, astrocytes, granule cells, U87 cells and Daoy cells, were treated with 1 μg/ml CXCL12 (PeproTech), […] AMD3465 (kind gift from Simon Fricker, AnorMED, Langley, BC, Canada) (200 μM Rolipram (Sigma), or 10 μM Forskolin (Sigma) as indicated.
cAMP measurement in cell culture. cAMP concentration was measured using a Correlated-EIA™. Enzyme Immunoassay Kit (Assay Designs Inc. MI) according to the manufacturer's instructions. Briefly, U87 or Daoy cells were serum-starved for 24 hours, and treated with CXCL12 (1 μg/ml), Rolipram (200 μM), or forskolin (10 μM). Cells were lysed in 0.1M HCL and particulate matter was removed by centrifugation at >600×g for 10 min. The supernatants were dried down and resuspended in assay buffer.
(§4) Determination of cAMP concentration. Competitive immunoassay for cAMP concentration was performed exactly as directed by the manufacturer. Absorbance at 405 nm was measured and cAMP concentrations were determined by calculation based on a standard curve. Protein concentrations were measured by colormetric assay (Bio-Rad, Hercules, Calif.) according to the manufacturer's directions. cAMP values were normalized to protein for each sample individually.

Test [3] has as its system cerebellar granule precursor cells (GPCs). In words: Intracellular cAMP by ELISA, primary cerebellar granule precursor cells. The format is cell-based, mouse. To be noted: 1 μg/ml CXCL12. As to the method: Primary granule neuron cultures. Primary cultures of purified GPCs were prepared from 6 day-old BALB/C mice as described (58). Cerebella were dissected and meninges were removed. After incubation with 0.1% trypsin (Sigma) in HBSS with 125 units/ml Dnase (Sigma), 0.5 mM EDTA for 20 minutes at 37° C., cells were pelleted and washed three times with HBSS. The final cell suspension was passed through a […] nylon mesh cell strainer (Falcon, Franklin Lakes, Mich.). Cells were diluted to 2×10^6 cells/ml in DMEM/F12 (Gibco BRL, Gaithersburg, Md.) supplemented with N2 (Gibco BRL), 20 mM KCl, and 36 mM glucose.
as §3, §4

Test [4] has as its system PDE4A-expressing Daoy cells. In words: Viable cell number, PDE4A-expressing Daoy cells. The format is cell-based, human. To be noted: CXCL12 1 μg/ml, AMD 3465 2.5 μg/ml, Rolipram 200 μM. Here is the method:
PDE4A expression. U87 and Daoy cells (15,000 cells) were transiently transfected for 48 h with a plasmid encoding a transgene for the tet-off transactivator (tTA) alone (kind gift from Dr. Louis Muglia, Washington University School of Medicine, St. Louis, Mo.), a plasmid containing a transgene for tet-off regulated expression of phosphodiesterase 4A (PDE4A) alone (kind gift from Dr. James Cherry, Boston University, Boston, Mass.), or a combination of both plasmids, using lipofectamine (Invitrogen) according to the manufacturer's instructions. Plasmid DNA (2 μg) was mixed with lipofectamine (5 μl) per 35 mm^2 dish. Transfection proceeded for 9 hours prior to exchanging transfection media for αMEM supplemented with 10% FCS.

On to “CXCL12: chemokine ligand of CXCR4 (Peprotech)”, for which, in the test on Nf1−/− astrocytes, the “increase in cell number” value is listed as ~14+/−2%. Also, in the test on Nf1+/+ astrocytes [1], the “decrease in cell number” value was 10+/−5%. Also, in the test with Nf1+/+ astrocytes [2], the “integrated area under the cAMP curve” value is given as 2.70 and the “intracellular cAMP, lower level of oscillation” value is recorded as 40 % of baseline. In the test with U87 glioblastoma cells, the “cyclic AMP levels after CXCL12” value is given as “rapidly declined” and the “reduction in intracellular cAMP as compared to astrocytes (area under the curve)” value is given as 45%. Further, the “change in cAMP levels” value in test [3] was “little to no change”. In addition, in test [4], the “effect on cell number” value was “no longer any benefit”.
